The source made the active and inactive calls. The rule behind the calls is not given here.
What follows are compounds tested against Serine/threonine-protein kinase mTOR (Homo sapiens) (UniProt P42345) (assay: mTOR FRB domain ligand binding – biophysical, NMR (AID 1648)). Conditions: NMR binding to FRB domain, chemical shift.
Serine/threonine-protein kinase mTOR (Homo sapiens), sequence (P42345 2015-2114): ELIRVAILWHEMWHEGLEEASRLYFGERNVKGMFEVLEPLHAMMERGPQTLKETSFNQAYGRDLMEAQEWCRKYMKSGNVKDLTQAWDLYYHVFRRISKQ

SMILES | Kd
CC(=O)c1c(O)c(C)c(O)c2c1OC1=CC(=O)C(C(C)=O)C(=O)C12C (stereo not drawn) | > 4 mM (inactive)
COc1nc(C#N)c(N2CCOCC2)o1 | > 4 mM (inactive)
c1ccc(Cn2c(Nn3cnnc3)nc3ccccc32)cc1 | > 4 mM (inactive)
S=C(NCc1ccco1)NN1CCOCC1 | > 4 mM (inactive)
Cc1cc(C)nc(/N=C(/N)N2CCN(C)CC2)n1 | > 4 mM (inactive)
O=c1[nH]c2sc3c(c2c2ncnn12)CCCC3 | > 4 mM (inactive)
OCc1ccccc1CN1CCOCC1 | > 4 mM (inactive)
O=C(Nc1nnc(-c2ccco2)o1)C1=COCCO1 | > 4 mM (inactive)
CNS(=O)(=O)c1ccc2[nH]c(=O)[nH]c2c1 | > 4 mM (inactive)
O=C(O)c1ccc2nsnc2c1 | > 4 mM (inactive)
O=C(O)c1ccc(-n2cccc2)cc1 | > 4 mM (inactive)
Cc1nc2sccn2c1C(=O)O | > 4 mM (inactive)
O=C1CCC(=O)N1CNc1ccccc1 | > 4 mM (inactive)
O=c1oc(-c2ccccc2)nc2c1cnn2-c1ccccc1 | > 4 mM (inactive)
C=CCN1CC[C@]23c4c5ccc(O)c4OC2C(=O)CC[C@@]3(O)[C@H]1C5 (stereo partly drawn) | > 4 mM (inactive)
COc1ccc(-c2coc3cc(OC(C)=O)cc(OC(C)=O)c3c2=O)cc1 | > 4 mM (inactive)
CC(=O)c1c(C)nc(C)nc1NC(=O)C(C)C | > 4 mM (inactive)
CC(C)NC(=O)c1cc(=O)n(C)c(=O)n1C | > 4 mM (inactive)
CC(C)c1ccc2c(c1O)CC[C@H]1C3=C(CC[C@]21C)C(=O)OC3 | > 4 mM (inactive)
O=C(O)C1CC(=O)N(CCc2ccc(Cl)cc2)C1 (stereo not drawn) | > 4 mM (inactive)
NCc1nc2ccccc2s1 | > 4 mM (inactive)
CC(C)=CC(=O)Nc1ccc(S(N)(=O)=O)cc1 | > 4 mM (inactive)
CN(c1ccccc1C(=O)N1CCCC1)S(C)(=O)=O | > 4 mM (inactive)

SMILES | Kd
NS(=O)(=O)c1ccc(NC(=O)c2ccccc2F)cc1 | > 4 mM (inactive)
NC(=O)c1ccc(-c2csnn2)cc1 | > 4 mM (inactive)
O=S(=O)(c1cccc2cccnc12)N1CCOCC1 | > 4 mM (inactive)
S=c1nc2c(n[nH]1)[nH]c1ccccc12 | > 4 mM (inactive)
COC(=O)C(O)[C@@H]1C2(C)C(=O)[C@@H](CC3=C4CC(=O)O[C@@H](c5ccoc5)[C@]4(C)CCC32)[C@H](OC(C)=O)C1(C)C (stereo partly drawn) | > 4 mM (inactive)
COc1cc(O)c2c(c1)C(=O)c1cc(C)cc(O)c1C2=O | > 4 mM (inactive)
COc1ccc(/C=C2/C(=O)N=C(N)N2C)cc1OC | > 4 mM (inactive)
CC(C)=CCCC1(C)C=Cc2c(O)c3c(c(CC=C(C)C)c2O1)OC12C(=CC4CC1C(C)(C)OC2(C/C=C(/C)C(=O)O)C4O)C3=O (stereo not drawn) | > 4 mM (inactive)
Cc1nn(-c2ccccc2)nc1C(N)=O | > 4 mM (inactive)
CC(C)NC(=O)c1nc2ccccc2s1 | > 4 mM (inactive)
COc1ccc(Cl)c(S(=O)(=O)N2CCCC2)c1 | > 4 mM (inactive)
COc1cc(/C=C/C(=O)O)ccc1O | > 4 mM (inactive)
NCc1ccc2occc2c1 | > 4 mM (inactive)
C=C1C(N)CC2CC1C2(C)C (stereo not drawn) | > 4 mM (inactive)
CCC(=O)Nc1cccc(NC(C)=O)c1 | > 4 mM (inactive)
OCc1ccccc1N1CCOCC1 | > 4 mM (inactive)
CC(=O)C1=C(O)C(=O)NC1c1ccccc1 (stereo not drawn) | > 4 mM (inactive)
CC1=C2C(=CO[C@H](C)[C@H]2C)C(=O)C(C(=O)O)=C1O | > 4 mM (inactive)
Cc1cc(Oc2ccccc2)nc(N)n1 | > 4 mM (inactive)
C/C(=C\CO)CC[C@H](C)CCC[C@H](C)CCCC(C)C | > 4 mM (inactive)
O=C1CCNc2ccccc2N1 | > 4 mM (inactive)
C=CCc1cc(C(=O)N2CCCCC2)ccc1O | > 4 mM (inactive)
O=c1[nH]c(=S)c2c(n1-c1ccccc1)CCC2 | > 4 mM (inactive)

SMILES | Kd
COc1cc([C@@H]2c3cc4c(cc3[C@H](O)[C@H]3COC(=O)[C@H]23)OCO4)cc(OC)c1OC | > 4 mM (inactive)
O=C(Nc1ccc(-c2nnco2)cc1)c1ccccc1 | > 4 mM (inactive)
CC(CCC(=O)O)[C@H]1CCC2C3CC[C@@H]4C[C@H](O)CC[C@]4(C)C3CC[C@@]21C (stereo partly drawn) | > 4 mM (inactive)
O=C(c1ccccc1)c1ccccc1C(=O)N1CCCC1 | > 4 mM (inactive)
C=C(C)[C@H]1Cc2c(ccc3c2O[C@@H]2COc4cc(OC)c(OC)cc4[C@@H]2C3=O)O1 | > 4 mM (inactive)
O=C(c1ccco1)N1CCN(c2ccc(Cl)cc2)CC1 | > 4 mM (inactive)
O=C(O)c1ccc(-n2ccnc2)cc1 | > 4 mM (inactive)
O=C1Nc2ccccc2C1(O)Cc1ccncc1 (stereo not drawn) | > 4 mM (inactive)
CCN1CCC(NC2CCCCNC2=O)CC1 (stereo not drawn) | > 4 mM (inactive)
Nc1cccc(S(=O)(=O)N2CCCCC2)c1 | > 4 mM (inactive)
COc1cc(C(=S)N2CCOCC2)ccc1O | > 4 mM (inactive)
O=C1C(=O)N(CN2CCN(CCO)CC2)c2ccccc21 | > 4 mM (inactive)
CC(C)c1ccc(NC(=O)C(N)=O)cc1 | > 4 mM (inactive)
Nc1ccc2c(c1)OCO2 | > 4 mM (inactive)
Cn1ncc(C(=O)NC2CCCCC2)c1Cl | > 4 mM (inactive)
O=C(O)c1cccc(N2C(=O)C3CC=CCC3C2=O)c1 (stereo not drawn) | > 4 mM (inactive)
CC(=O)O[C@H]1C[C@@H](OC(C)=O)C(C)(C)C2CC(=O)[C@]3(C)C(CC[C@@]4(C)[C@H](C(=O)O)OC(=O)C5OC543)[C@]21C (stereo partly drawn) | > 4 mM (inactive)
C[C@@H]1CC[C@@]2(OC1)OC1CC3C4CC=C5C[C@@H](O)CC[C@]5(C)C4CC[C@]3(C)C1[C@@H]2C (stereo partly drawn) | > 4 mM (inactive)
Cn1nnc2cc(C(=O)N3CCSCC3)ccc21 | > 4 mM (inactive)
O=C(O)C1CC(C2CCCCN2)CN2CCCCC12 (stereo not drawn) | > 4 mM (inactive)
CSc1nc2[nH]ncc2c(=O)[nH]1 | > 4 mM (inactive)
O=C(O[C@@H]1Cc2c(O)cc(O)cc2O[C@@H]1c1cc(O)c(O)c(O)c1)c1cc(O)c(O)c(O)c1 | > 4 mM (inactive)
C=C1[C@H]2CC[C@@]3(C)[C@H](c4ccoc4)OC(=O)C[C@]13O[C@H]1C[C@H](O)C(C)(C)[C@H](CC(=O)OC)[C@]12C | > 4 mM (inactive)

SMILES | Kd
O=C(O)c1cn(-c2ccccc2)nc1-c1ccncc1 | > 4 mM (inactive)
O=C(O)CCC(=O)Nc1ccccc1F | > 4 mM (inactive)
Cc1ccc(C)c(S(=O)(=O)NCc2cccnc2)c1 | > 4 mM (inactive)
Cc1ccc(C)c(C(=O)NCc2ccncc2)c1 | > 4 mM (inactive)
CCOC(=O)c1ccc2c(c1)nnn2C | > 4 mM (inactive)
C=C[C@@](C)(O)CCC1C(=C)C[C@H](O)C2C(C)(C)CCCC12C (stereo partly drawn) | > 4 mM (inactive)
S=c1[nH]ncn1-c1ccccc1 | > 4 mM (inactive)
OC[C@H]1O[C@@](CO)(O[C@@H]2O[C@H](CO)[C@@H](O)[C@H](O)[C@H]2O)[C@@H](O[C@@H]2O[C@H](CO)[C@@H](O)[C@H](O)[C@H]2O)[C@@H]1O | > 4 mM (inactive)
O=C(NCc1ccccc1)c1cnsn1 | > 4 mM (inactive)
Cc1cc(NC(=O)Cc2c(F)cccc2Cl)no1 | > 4 mM (inactive)
Cn1nnc2c(N3CCC(C(N)=O)CC3)ncnc21 | > 4 mM (inactive)
COCCn1cnc2cc(C)c(C)cc21 | > 4 mM (inactive)
Cc1cccc(N2C(=O)CC(=O)NC2=O)c1 | > 4 mM (inactive)
O=C(O)C1CC(=O)N(Cc2ccc(F)cc2)C1 (stereo not drawn) | > 4 mM (inactive)
Cc1cc(C(=O)NCc2cccnc2)cs1 | > 4 mM (inactive)
CC(=O)N1C(=S)NC(=O)/C1=C\c1cccnc1 | > 4 mM (inactive)
OC1CCC(C(F)(F)F)CC1 (stereo not drawn) | > 4 mM (inactive)
NC(=O)NC(=O)Nc1ccc(Cl)cc1 | > 4 mM (inactive)
O=C(O)c1cc2ccccc2o1 | > 4 mM (inactive)
COC1CC(O[C@H]2CC[C@]3(C=O)C4CC[C@]5(C)C(C6=CC(=O)OC6)CC[C@]5(O)C4CC[C@]3(O)C2)OC(C)C1O (stereo partly drawn) | > 4 mM (inactive)
CCOCC(=O)NCc1n[nH]c(=O)c2ccccc12 | > 4 mM (inactive)
N#Cc1nc(N2CCCCC2)nc(N2CCOCC2)n1 | > 4 mM (inactive)
O=C(COc1ccccc1Cl)N1CCCC1 | > 4 mM (inactive)

SMILES | Kd
O=c1c[n+]([O-])c2ccccc2n1OCc1ccccn1 | > 4 mM (inactive)
Cn1c(O)c(/C=C2\C=CC=N2)c(=O)[nH]c1=O | > 4 mM (inactive)
Cc1nnc(NCCCO)[nH]c1=O | > 4 mM (inactive)
Cn1c(CO)nc2cc(N)ccc21 | > 4 mM (inactive)
Cc1n[nH]c(=O)nc1N1CCN(c2ccccc2)CC1 | > 4 mM (inactive)
CC1(C)C2CC(=O)[C@]3(C)C(CC[C@@]4(C)[C@H](c5ccoc5)OC(=O)[C@H]5O[C@]543)[C@@]2(C)C=C[C@@H]1O (stereo partly drawn) | > 4 mM (inactive)
CC(=O)Nc1ccc(C(=O)NC2=NCCS2)cc1 | > 4 mM (inactive)
O=C(O)Cn1c(C(F)(F)F)nc2ccccc21 | > 4 mM (inactive)
O=C1CC[C@]23/C=C/C(=O)NCCCCNCCCNC(=O)/C=C/c4ccc(c2c4)O[C@@H]3C1 | > 4 mM (inactive)
NC(=O)C12CC3CC(C1)C(=O)C(C3)C2 | > 4 mM (inactive)
CCn1nnc2c(NCc3ccccn3)ncnc21 | > 4 mM (inactive)
Cc1ccc(C(=O)Nc2nnc(-c3ccncc3)s2)o1 | > 4 mM (inactive)
CC(C)c1c(O)ccc2c1CCC1[C@@](C)(C=O)CCC[C@]21C (stereo partly drawn) | > 4 mM (inactive)
O=C1CC(c2ccccc2)n2ncnc2N1 (stereo not drawn) | > 4 mM (inactive)
O=C(O)C1CC2CC1CCC2O (stereo not drawn) | > 4 mM (inactive)
CCS(=O)(=O)N1CCN(c2ccccc2F)CC1 | > 4 mM (inactive)
CC(NC(=O)c1ccco1)c1ccc2c(c1)OCCO2 (stereo not drawn) | > 4 mM (inactive)
Oc1ccccc1N=Cc1cccnc1 | > 4 mM (inactive)
O=C(NCc1cccc(Cl)c1)c1cnccn1 | > 4 mM (inactive)
CNC[C@@H](O)c1ccc(O)c(O)c1 | > 4 mM (inactive)
NC(C(=O)O)C(O)C(=O)O (stereo not drawn) | > 4 mM (inactive)
